{"source": "patent US20250332081A1", "about": "“A Composition Against Osmotic Stress” (ELC Management LLC, priority 2022, published 2025)", "system": "Normal Human Epidermal Keratinocytes (NHEK)", "experiment": "Hyper-osmotic stress model in NHEKs: cell protection (alamarBlue viability) and combination index", "type": "cell-based", "conditions": "48 hrs, hyper-osmotic stress 450 mOsm", "method": "1.2 g betaine (RDS 51-6709) was dissolved in 100 ml water with magnetic stirring for complete dissolution (Stock concentration 1.2%). 0.5 g Roselle extract (Hibiscus Sabdariffa Extract, Lucas Meyer Cosmetics Company) was dissolved in 10 mL water to achieve 5% stock solution. Then the solutions were filtrated with 0.22 um filter to keep sterile.\nNormal Human Epidermal Keratinocytes (NHEK, FC-0007) purchased from Lifeline Cell Technology were incubated at 37° C., 95% humidity and 5% CO2 in keratinocyte cell culture medium (DermaLife K Keratinocyte Medium Complete Kit, LL-0007, Lifeline cell technology) supplemented with growth factors and 1% Penicillin/Streptomycin (Thermo Fischer, Waltham, MA, USA). Cells were passaged upon reaching 80% confluency.\nNHEKs were plated in 96-well plates at 4,000/well density. After 24 h of incubation, the cells would have reached ˜80% confluency. 4.38 mg/mL NaCL was added in the culture media to achieve 450 osmolarity, on top of a baseline ˜300 mOsm.\nOn day 1, NHEKs were seeded with culture medium (DermaLife K Keratinocyte Medium Complete Kit) in a 96-well plate at 3,000 cells/well. After 24 h adherence, a 2-active combination experiment was carried out in vitro. 21 data points were used for dose and effect, including 4 concentrations for betaine, 7 concentrations for roselle extract and their combination as below (Table 1). Cells were treated with the combination of these actives for 48 hrs (Separately diluted with cell culture medium, followed by mixing together to treat cells). Then cells were washed with Dulbecco's phosphate buffered saline (DPBS) twice, and then incubated in medium with 10% alamarBlue™ Cell Viability Reagent (Thermo Fisher, Waltham, MA, USA) for 120 minutes. The incubated plates were measured for fluorescence using a Perkin Elmer plate reader (VICTOR Nivo), at Ex 530 nm/Em 615 nm. The value are recorded as RFU value.\nThe protective effect can be determined by Cell viability ratio (%) and Cell protection rate (%) as follows.\nAccording to the theory proposed by Chou and Talalay (TING-CHAO CHOU. Theoretical Basis, Experimental Design, and Computerized Simulation of Synergism and Antagonism in Drug Combination Studies. Pharmacol Rev 58:621-681, 2006), the level of synergism can be typically measured and quantified by the drug combination index (CI, a quantitative measure of drug combination effects) from experimental dose-response data. The concentration of each compound, the protection ratio of each compound or the combo of these two compounds data were input into computer for automated analysis using CalcuSyn software. […]\nExperiments were conducted at four levels of betaine and seven levels of roselle extract. […] Synergy value is classified based on the calculated combination index."}
{"smiles": "C[N+](C)(C)CC(=O)[O-]", "note": "[Betaine, trimethylglycine]", "values": [{"measurement": "Protective Ratio (%)", "setting": "betaine 0.03% alone", "result": 8.924, "unit": "%"}, {"measurement": "Protective Ratio (%)", "setting": "betaine 0.06% alone", "result": 19.658, "unit": "%"}, {"measurement": "Protective Ratio (%)", "setting": "betaine 0.09% alone", "result": 15.259, "unit": "%"}, {"measurement": "Protective Ratio (%)", "setting": "betaine 0.1% alone", "result": 17.451, "unit": "%"}]}
